Test results taken from US20080188481A1 (priority 2002, published 2008).

Test system: HIV-1 single-round infectious reporter virus
Experiment: Single-round infectious HIV-1 luciferase reporter virus infection of HeLa CD4 cells (antiviral EC50)
Assay type: cell-based
Conditions: Human immunodeficiency virus 1, HeLa, 72 h, read-out: EC50 Group from Table 1
Procedure: • Virus production—Human embryonic Kidney cell line, 293T, was propagated in Dulbecco's Modified Eagle Medium (Invitrogen, Carlsbad, Calif.) containing 10% fetal Bovine serum (FBS, Sigma, St. Louis, Mo.). • Virus infection—Human epithelial cell line, HeLa, expressing the HIV-1 receptor CD4 was propagated in Dulbecco's Modified Eagle Medium (Invitrogen, Carlsbad, Calif.) containing 10% fetal Bovine serum (FBS, Sigma, St. Louis, Mo.) and supplemented with 0.2 mg/mL Geneticin (Invitrogen, Carlsbad, Calif.). Virus-Single-round infectious reporter virus was produced by co-transfecting human embryonic Kidney 293 cells with an HIV-1 envelope DNA expression vector and a proviral cDNA containing an envelope deletion mutation and the luciferase reporter gene inserted in place of HIV-1 nef sequences (Chen et al, Ref. 41). Transfections were performed using lipofectAMINE PLUS reagent as described by the manufacturer (Invitrogen, Carlsbad, Calif.).
• 1. HeLa CD4 cells were plated in 96 well plates at a cell density of 1×10^4 cells per well in 100 μl Dulbecco's Modified Eagle Medium containing 10% fetal Bovine serum and incubated overnight. • 2. Compound was added in a 2 μl dimethylsulfoxide solution, so that the final assay concentration would be ≦10 μM. • 3. 100 μl of single-round infectious reporter virus in Dulbecco's Modified Eagle Medium was then added to the plated cells and compound at an approximate multiplicity of infection (MOI) of 0.01, resulting in a final volume of 200 μl per well. • 4. Virally-infected cells were incubated at 37 degrees Celsius, in a CO2 incubator, and harvested 72 h after infection. • 5. Viral infection was monitored by measuring luciferase expression from viral DNA in the infected cells using a luciferase reporter gene assay kit, as described by the manufacturer (Roche Molecular Biochemicals, Indianapolis, Ind.). Infected cell supernatants were removed and 50 μl of lysis buffer was added per well. After 15 minutes, 50 μl of freshly-reconstituted luciferase assay reagent was added per well. Luciferase activity was then quantified by measuring luminescence using a Wallac microbeta scintillation counter. • 6. The percent inhibition for each compound was calculated by quantifying the level of luciferase expression in cells infected in the presence of each compound as a percentage of that observed for cells infected in the absence of compound and subtracting such a determined value from 100. • 7. An EC50 provides a method for comparing the antiviral potency of the compounds of this invention. The effective concentration for fifty percent inhibition (EC50) was calculated with the Microsoft Excel Xlfit curve fitting software. For each compound, curves were generated from percent inhibition calculated at 10 different concentrations by using a four paramenter logistic model (model 205). Table 1 is the key for the data in Table 2.

Row | Compound | EC50
1 | COc1cnc(-c2cnccn2)c2[nH]cc(C(=O)C(=O)N3CCC(=C(C(N)=O)c4ccccc4)CC3)c12 [Example 49] | < 1000 nM
2 | COc1cnc(Cl)c2[nH]cc(C(=O)C(=O)N3CCC(=C(F)c4ccccc4)CC3)c12 [Example 21] | < 1000 nM
3 | COc1cnc(-n2cncn2)c2[nH]cc(C(=O)C(=O)N3CCC(=C(c4ccccc4)c4nnc(C)o4)CC3)c12 [Example 79, 1-[4-(1-Phenyl-1-(5-methyl-1,3,4-oxadiazol-2-yl)-methylene)-piperidin-1-yl]-2-[4-methoxy-7-(1,2,4-triazol-1-yl)-6-azaindol-3-yl]-ethane-1,2-dione] | < 1000 nM
4 | N#CC(=C1CCN(C(=O)C(=O)c2c[nH]c3c(-c4nccs4)ccnc23)CC1)c1ccccc1 [Example 104, {1-[2-Oxo-2-(7-thiazol-2-yl-1H-pyrrolo[3,2-b]pyridin-3-yl)-acetyl]-piperidin-4-ylidene}-phenyl-acetonitrile] | < 1000 nM
5 | O=C(C(=O)N1CCC(=C(Br)c2ccccc2)CC1)c1c[nH]c2c(Cl)ccnc12 [Example 107, 1-[4-(Bromo-phenyl-methylene)-piperidin-1-yl]-2-(7-chloro-1H-pyrrolo[3,2-b]pyridin-3-yl)-ethane-1,2-dione] | < 1000 nM
6 | COc1ncc(OC)c2c(C(=O)C(=O)N3CCC(=C(c4ccccc4)c4nnc(C(F)(F)F)o4)CC3)c[nH]c12 [Example 53, 1-[4-(1-Phenyl-1-(5-trifluoromethyl-1,3,4-oxadiazol-2-yl)-methylene)-piperidin-1-yl]-2-(4,7-dimethoxy-6-azaindol-3-yl)-ethane-1,2-dione] | < 1000 nM
7 | O=C(C(=O)N1CCC(=C(c2ccccc2)c2cc(F)cc(F)c2)CC1)c1c[nH]c2c(Cl)ccnc12 [Example 109, 1-(7-Chloro-1H-pyrrolo[3,2-b]pyridin-3-yl)-2-{4-[(3,5-difluoro-phenyl)-phenyl-methylene]-piperidin-1-yl}-ethane-1,2-dione] | < 1000 nM
8 | COc1ncc(OC)c2c(C(=O)C(=O)N3CCC(=C(C#N)c4ccsc4)CC3)c[nH]c12 [Example 126, 1-[4-(1-Cyano-1-thien-3-yl-methylene)-piperidin-1-yl]-2-(4,7-dimethoxy-6-azaindol-3-yl)-ethane-1,2-dione] | < 1000 nM
9 | COc1cnc(-c2cnccn2)c2[nH]cc(C(=O)C(=O)N3CCC(=C(c4ccccc4)c4ccc(F)cc4)CC3)c12 [Example 93] | < 1000 nM
10 | COc1cnc(-n2cnc(C)n2)c2[nH]cc(C(=O)C(=O)N3CCC(=C(c4ccccc4)c4nnc(C)o4)CC3)c12 [Example 80, 1-[4-(1-Phenyl-1-(5-methyl-1,3,4-oxadiazol-2-yl)-methylene)-piperidin-1-yl]-2-[4-methoxy-7-(3-methyl-1,2,4-triazol-1-yl)-6-azaindol-3-yl]-ethane-1,2-dione] | < 1000 nM
11 | COc1cnc(-n2cnc(C)n2)c2[nH]cc(C(=O)C(=O)N3CCC(=C(c4ccccc4)c4cccc(CO)c4)CC3)c12 [Example 84, 1-[4-(1-Phenyl-1-(3-hydroxymethylphenyl)-methylene)-piperidin-1-yl]-2-[4-methoxy-7-(3-methyl-1,2,4-triazol-1-yl)-6-azaindol-3-yl]-ethane-1,2-dione] | < 1000 nM
12 | COc1ncc(OC)c2c(C(=O)C(=O)N3CCC(=C(c4ccccc4)c4c(C)noc4C)CC3)c[nH]c12 [Example 60] | < 1000 nM
13 | COc1ncc(OC)c2c(C(=O)C(=O)N3CCC(=C(C#N)c4nc5ccccc5[nH]4)CC3)c[nH]c12 [Example 23] | < 1000 nM
14 | COc1ncc(OC)c2c(C(=O)C(=O)N3CCC(=C(c4ccccc4)c4cnccn4)CC3)c[nH]c12 [Example 56] | < 1000 nM
15 | C#CC(=C1CCN(C(=O)C(=O)c2c[nH]c3c(OC)ncc(OC)c23)CC1)c1ccccc1 [Example 113, 1-[4-(1-Phenyl-1-ethynyl-methylene)-piperidin-1-yl]-2-(4,7-dimethoxy-6-azaindol-3-yl)-ethane-1,2-dione] | < 1000 nM
16 | COc1ncc(OC)c2c(C(=O)C(=O)N3CCC(=C(c4ccccc4)c4ccccn4)CC3)c[nH]c12 [Example 50, 1-[4-(1-Phenyl-1-(pyridin-2-yl)-methylene)-piperidin-1-yl]-2-(4,7-dimethoxy-6-azaindol-3-yl)-ethane-1,2-dione] | < 1000 nM
17 | COc1ncc(OC)c2c(C(=O)C(=O)N3CCC(=C(C#C[Si](C)(C)C)c4ccccc4)CC3)c[nH]c12 [Example 112, 1-[4-(1-Phenyl-1-(2-trimethylsilylethyn-1-yl)-methylene)-piperidin-1-yl]-2-(4,7-dimethoxy-6-azaindol-3-yl)-ethane-1,2-dione] | < 1000 nM
18 | COc1cnc(-c2cnccn2)c2[nH]cc(C(=O)C(=O)N3CCC(=C(c4ccccc4)c4cnccn4)CC3)c12 [Example 70, 1-[4-(1-Phenyl-1-(pyrazinyl)-methylene)-piperidin-1-yl]-2-(4-methoxy-7-pyrazinyl-6-azaindol-3-yl)-ethane-1,2-dione] | < 1000 nM
19 | C=C(C)c1nnc(C(=C2CCN(C(=O)C(=O)c3c[nH]c4c(-n5cnc(C)n5)ncc(OC)c34)CC2)c2ccccc2)o1 [Example 130, 1-[4-(1-Phenyl-1-(5-isopropenyl-1,3,4-oxadiazol-2-yl)-methylene)-piperidin-1-yl]-2-[4-methoxy-7-(3-methyl-1,2,4-triazol-1-yl)-6-azaindol-3-yl]-ethane-1,2-dione] | < 1000 nM
20 | COc1ncc(OC)c2c(C(=O)C(=O)N3CCC(=C(c4ccccc4)c4ccc(C#N)cc4)CC3)c[nH]c12 [Example 59] | < 1000 nM
21 | COc1ncc(OC)c2c(C(=O)C(=O)N3CCC(=C(C#Cc4ccccc4)c4ccccc4)CC3)c[nH]c12 [Example 118, 1-[4-(1-Phenyl-1-(2-phenylethyn-1-yl)-methylene)-piperidin-1-yl]-2-(4,7-dimethoxy-6-azaindol-3-yl)-ethane-1,2-dione] | < 1000 nM
22 | COc1cnc(-n2cc(C)nn2)c2[nH]cc(C(=O)C(=O)N3CCC(=C(c4ccccc4)c4nnc(C)o4)CC3)c12 [Example 138, 1-[4-(1-Phenyl-1-(5-methyl-1,3,4-oxadiazol-2-yl)-methylene)-piperidin-1-yl]-2-(4-methoxy-7-(4-methyl-1,2,3-triazol-1-yl)-6-azaindol-3-yl)-ethane-1,2-dione] | < 1000 nM
23 | COc1ncc(OC)c2c(C(=O)C(=O)N3CCC(=C(c4ccccc4)c4cccc(SC)c4)CC3)c[nH]c12 [Example 68] | < 1000 nM
24 | COc1cnc(-c2cc(C)n[nH]2)c2[nH]cc(C(=O)C(=O)N3CCC(=C(c4ccccc4)c4nnc(C)o4)CC3)c12 [Example 140, 1-[4-(1-Phenyl-1-(5-methyl-1,3,4-oxadiazol-2-yl)-methylene)-piperidin-1-yl]-2-(4-methoxy-7-(5-methylpyrazole-3-yl)-6-azaindol-3-yl)-ethane-1,2-dione] | < 1000 nM
25 | COc1ncc(OC)c2c(C(=O)C(=O)N3CCC(=C(C#CC4CC4)c4ccccc4)CC3)c[nH]c12 [Example 115, 1-[4-(1-Phenyl-1-(2-cyclopropylethyn-1-yl)-methylene)-piperidin-1-yl]-2-(4,7-dimethoxy-6-azaindol-3-yl)-ethane-1,2-dione] | < 1000 nM
26 | COc1cnc(-c2cnccn2)c2[nH]cc(C(=O)C(=O)N3CCC(=C(c4ccccc4)c4nnc(C)o4)CC3)c12 [Example 72, 1-[4-(1-Phenyl-1-(5-methyl-1,3,4-oxadiazol-2-yl)-methylene)-piperidin-1-yl]-2-(4-methoxy-7-pyrazinyl-6-azaindol-3-yl)-ethane-1,2-dione] | < 1000 nM
